The assay relates to SARS-CoV-2. Nature of the assay: microbe, parasite or virus in culture. The following applies: Severe acute respiratory syndrome coronavirus 2, Vero C1008, 48 h.

Structures are written as SMILES.

`CCCc1nc2c(C)cc(-c3nc4ccccc4n3C)cc2n1Cc1ccc(-c2ccccc2C(=O)O)cc1` gave an IC50 greater than 20 µM. Besides, the IC50 (read-out: pIC50 (converted)) is greater than 20 µM.

With `CS(=O)(=O)Nc1ccc2c(c1)S(=O)(=O)N=C(C1=C(O)C3C4CCC(C4)C3N(Cc3ccc(F)cc3)C1=O)N2` (configuration not stated), the IC50 was greater than 20 µM. Further, the IC50 (read-out: pIC50 (converted)) was greater than 20 µM.

With `NC(=O)NC(CC(=O)O)C(=O)O` (configuration not stated), the IC50 is greater than 20 µM. Further, where the note is “read-out: pIC50 (converted)”, the IC50 is greater than 20 µM.

In turn, `COc1c2ccoc2nc2c(OC)c(OC[C@@H](O)C(C)(C)O)ccc12` showed an IC50 greater than 20 µM. For the same compound, for the setting “read-out: pIC50 (converted)”, the IC50 was greater than 20 µM.

In the case of `O=C1OCCN1/N=C\c1ccc([N+](=O)[O-])o1`, the IC50 was greater than 20 µM. For the same compound, the IC50 (read-out: pIC50 (converted)) was greater than 20 µM.

In turn, `COc1ccc2cc([C@@H](C)C(=O)O)ccc2c1` had an IC50 greater than 20 µM. Moreover, where the note is “read-out: pIC50 (converted)”, the IC50 is greater than 20 µM.

As to `CCCC(=O)Nc1ncnc2c1ncn2[C@@H]1O[C@@H]2OP(=O)(O)OC[C@H]2[C@H]1OC(=O)CCC`, the IC50 is greater than 20 µM. Also, the IC50 (read-out: pIC50 (converted)) was greater than 20 µM.

`CC(=O)OC(CC(=O)O)C[N+](C)(C)C` (configuration not stated) yielded an IC50 greater than 20 µM. In addition, for the setting “read-out: pIC50 (converted)”, the IC50 was greater than 20 µM.

The compound `Clc1cnccn1` came in with an IC50 greater than 20 µM. Further, the IC50 (read-out: pIC50 (converted)) was greater than 20 µM.

Compound `C[C@]12CCC3C(CCC4=C(Cl)C(=O)CC[C@@]43C)C1CCC2O` (some centres not stated) showed an IC50 greater than 20 µM. Also, the IC50 (read-out: pIC50 (converted)) was greater than 20 µM.

In turn, `CN1C2CCCC1CC(=O)C2` had an IC50 greater than 20 µM. The IC50 (read-out: pIC50 (converted)) is greater than 20 µM.

The compound `CCN(CC)CCOc1ccc(Cc2ccccc2)cc1` gave an IC50 greater than 20 µM. The IC50 (read-out: pIC50 (converted)) is greater than 20 µM.

For the compound `C[C@@H]1CC[C@]2(C(=O)O)CC[C@]3(C)C(=CCC4[C@@]5(C)CC[C@H](O)C(C)(C)C5CC[C@]43C)C2[C@H]1C` (some centres not stated), the IC50 was greater than 20 µM. The IC50 (read-out: pIC50 (converted)) was greater than 20 µM.

Regarding `CCCN(CCC)c1cc(C)nc2c(-c3cnc(N(C)C)cc3C)c(C)nn12`, the IC50 was greater than 20 µM. Further, the IC50 (read-out: pIC50 (converted)) was greater than 20 µM.

`CN1Cc2ccccc2[C@@H]2c3cccc4[nH]cc(c34)C[C@H]21` displayed an IC50 greater than 20 µM. The IC50 (read-out: pIC50 (converted)) is greater than 20 µM.

Compound `CC(C)(CO)C(=O)SCCOP(=O)(NCc1ccccc1)OC[C@H]1O[C@@H](n2cnc3c(=O)[nH]c(N)nc32)[C@](C)(O)[C@@H]1O` (some centres not stated) registered an IC50 greater than 20 µM. For the same compound, for the setting “read-out: pIC50 (converted)”, the IC50 is greater than 20 µM.

The compound `CCCn1c(=O)c2nc(C34CC5CC(CC(C5)C3)C4)[nH]c2n(CCC)c1=O` had an IC50 greater than 20 µM. Besides, the IC50 (read-out: pIC50 (converted)) is greater than 20 µM.

For `CN[C@H]1[C@H](O)[C@H](O[C@@H]2[C@@H](O)[C@H](O[C@H]3O[C@H]([C@@H](C)O)[C@@H](O)[C@H](O)[C@H]3N)[C@@H](N)C[C@H]2N)OC[C@@]1(C)O`, the IC50 was greater than 20 µM. In addition, the IC50 (read-out: pIC50 (converted)) is greater than 20 µM.

On to `O=C(/C=C/c1c(C(=O)O)[nH]c2cc(Cl)cc(Cl)c12)Nc1ccccc1`, for which the IC50 was greater than 20 µM. The IC50 (read-out: pIC50 (converted)) was greater than 20 µM.

Turning to `C=C1[C@@H](O)C23C[C@@H]1[C@@H](O)C[C@H]2[C@@]12[C@@H]4[C@H]3C[C@@H]1[C@@](C)(CC[C@@H]2O)CN4CC`, the IC50 was greater than 20 µM. The IC50 (read-out: pIC50 (converted)) was greater than 20 µM.

`CCCCCCCCCC(=O)N[C@@H](Cc1c[nH]c2ccccc12)C(=O)N[C@H](CC(N)=O)C(=O)N[C@@H](CC(=O)O)C(=O)N[C@@H]1C(=O)NCC(=O)N[C@@H](CCCN)C(=O)N[C@@H](CC(=O)O)C(=O)N[C@H](C)C(=O)N[C@@H](CC(=O)O)C(=O)NCC(=O)N[C@H](CO)C(=O)N[C@@H]([C@H](C)CC(=O)O)C(=O)N[C@@H](CC(=O)c2ccccc2N)C(=O)O[C@@H]1C` yielded an IC50 greater than 20 µM. The IC50 (read-out: pIC50 (converted)) is greater than 20 µM.

`C=C[C@]1(C)C[C@@H](OC(=O)CSCCN(CC)CC)[C@]2(C)C(C)CC[C@]3(CCC(=O)[C@@H]32)[C@@H](C)[C@@H]1O` (some centres not stated) gave an IC50 greater than 20 µM. Further, the IC50 (read-out: pIC50 (converted)) was greater than 20 µM.

`CCC(=O)OC1C(OC2C(C)C(OC3CC(C)(OC)C(O)C(C)O3)C(C)C(=O)OC(CC)C(C)(O)C(O)C(C)C(=O)C(C)CC2(C)O)OC(C)CC1N(C)C` (configuration not stated) came in with an IC50 greater than 20 µM. In addition, the IC50 (read-out: pIC50 (converted)) is greater than 20 µM.

Turning to `N[C@@H](CCC(=O)N[C@@H](Cc1c[nH]c2ccccc12)C(=O)O)C(=O)O`, the IC50 is greater than 20 µM. Further, for the setting “read-out: pIC50 (converted)”, the IC50 was greater than 20 µM.

With `COc1ccc(-c2ccc(=O)n(Cc3ccc(Cl)cc3F)c2)cc1`, the IC50 is greater than 20 µM. The IC50 (read-out: pIC50 (converted)) was greater than 20 µM.

For the compound `CC(C)C(=O)Nc1ccc([N+](=O)O)c(C(F)(F)F)c1`, the IC50 is greater than 20 µM. Besides, for the setting “read-out: pIC50 (converted)”, the IC50 is greater than 20 µM.

Consider `CCC[C@H](N[C@@H](C)C(=O)N1C2CCCCC2C[C@H]1C(=O)O)C(=O)OCC` (some centres not stated), for which the IC50 is greater than 20 µM. The IC50 (read-out: pIC50 (converted)) was greater than 20 µM.

In turn, `CC(=O)O[C@H]1CC[C@@]2(C)[C@H](CC[C@@H]3[C@@H]2CC[C@]2(C)C(=O)CC[C@@H]32)C1` registered an IC50 greater than 20 µM. Besides, under “read-out: pIC50 (converted)”, the IC50 was greater than 20 µM.

As for `O=C(O)C1N[C@H](C(=O)O)CS1` (some centres not stated), the IC50 was greater than 20 µM. Moreover, under “read-out: pIC50 (converted)”, the IC50 was greater than 20 µM.

For `CC12CCC(O)CC1CCC1[C@@H]2CC(O)C2(C)C(C3=CC(=O)OC3)CCC12O` (some centres not stated), the IC50 was greater than 20 µM. Where the note is “read-out: pIC50 (converted)”, the IC50 was greater than 20 µM.

In the case of `CC(C)(C)NC(=O)[C@H]1CC[C@H]2[C@H]3CC[C@H]4NC(=O)C=C[C@]4(C)[C@H]3CC[C@]12C`, the IC50 was greater than 20 µM. Moreover, the IC50 (read-out: pIC50 (converted)) was greater than 20 µM.

On to `O[C@@H]1[C@@H](O)[C@@H](O)CN2CC[C@@H](O)[C@H]12`, for which the IC50 was greater than 20 µM. Further, the IC50 (read-out: pIC50 (converted)) was greater than 20 µM.

`CC(C)[C@@]1(NC(=O)[C@@H]2C[C@@H]3c4cccc5[nH]cc(c45)C[C@H]3N(C)C2)O[C@@]2(O)[C@@H]3CCCN3C(=O)[C@H](C)N2C1=O` yielded an IC50 greater than 20 µM. Also, the IC50 (read-out: pIC50 (converted)) is greater than 20 µM.

In the case of `c1cnc2c(c1)CC1(CN3CCC1CC3)O2` (configuration not stated), the IC50 was greater than 20 µM. For the same compound, where the note is “read-out: pIC50 (converted)”, the IC50 was greater than 20 µM.

`NCCC(O)C(=O)N[C@H]1C[C@@H](N)[C@H](O[C@H]2O[C@H](CN)[C@@H](O)[C@H](O)[C@H]2O)[C@@H](O)[C@@H]1O[C@H]1O[C@H](CO)[C@@H](O)[C@H](N)[C@H]1O` (some centres not stated) gave an IC50 greater than 20 µM. Under “read-out: pIC50 (converted)”, the IC50 is greater than 20 µM.

Consider `CC1CNc2c(cccc2S(=O)(=O)N[C@@H](CCCNC(=N)N)C(=O)N2CC[C@H](C)C[C@@H]2C(=O)O)C1` (some centres not stated), for which the IC50 was greater than 20 µM. Besides, the IC50 (read-out: pIC50 (converted)) is greater than 20 µM.

Regarding `COC(=O)OC[C@H]1O[C@@H](Oc2cc(C)cc(O)c2C(=O)CCc2ccc3occc3c2)[C@H](O)[C@@H](O)[C@@H]1O`, the IC50 is greater than 20 µM. Besides, the IC50 (read-out: pIC50 (converted)) is greater than 20 µM.

As to `C[C@@H]1CC[C@@]2(NC1)O[C@H]1C[C@H]3[C@@H]4CC=C5C[C@@H](O)CC[C@]5(C)[C@H]4CC[C@]3(C)[C@H]1[C@@H]2C`, the IC50 is greater than 20 µM. For the setting “read-out: pIC50 (converted)”, the IC50 was greater than 20 µM.

Turning to `Nc1nonc1/C(=N/O)Nc1ccc(F)c(Cl)c1`, the IC50 is greater than 20 µM. For the same compound, the IC50 (read-out: pIC50 (converted)) was greater than 20 µM.

Compound `C[N+]12CCC(CC1)C(OC(=O)C(O)(c1ccccc1)c1ccccc1)C2` (configuration not stated) had an IC50 greater than 20 µM. Also, for the setting “read-out: pIC50 (converted)”, the IC50 is greater than 20 µM.

`O=C1Nc2ccc(I)cc2/C1=C/c1cc(Br)c(O)c(Br)c1`: the IC50 is greater than 20 µM. The IC50 (read-out: pIC50 (converted)) was greater than 20 µM.

For the origin of these results see ChEMBL document CHEMBL4651402, “Screening of ~5500 FDA-approved drugs and clinical candidates for anti-SARS-CoV-2 activity” (2021).
